Experimental findings from patent US10874103B2, “Antibacterial composition comprising an acetal or a long-chain alkyl hexitane ether” (TEREOS STARCH & SWEETENERS BELGIUM, priority 2014, dated 2020) are described below.

In experiment [1] the test system is Enterococci: E. faecium strains. The experiment is described as follows: MIC microdilution on wider panel (Example 8), E. faecium strains. Format: cell-based. As to the method:
(§1) The cultures studied, freshly isolated (after incubation on a blood agar at 37° C. for 18 h), are taken up in sterile water (10 mL) until a 0.5 McFarland (Mc) suspension i.e. at 1 to 2×10^8 CFU (bacteria)/cm^3 is obtained. The bacterial suspension was then diluted to obtain a final concentration of 1×10^6 CFU/cm^3.
(§2) Each well contains an identical quantity of Mueller-Hinton medium (a rich medium for bacterial culture) and bacteria with final 0.5×10^6 CFU/cm^3.
(§3) The test compounds of interest are solubilized in ethanol or DMSO at 25 mg/mL before being diluted to different concentrations two by two. On the multiwell plate, a first series has been planned comprising the culture medium without the test compound of interest. It corresponds to the growth control (control well). These controls serve as reference for comparing bacterial growth with that of the subsequent wells comprising different concentrations of the test compound of interest. The second series of wells comprises the mother solution for the test compound of interest for a concentration in the wells of 256 mg (7 mM). Each series of wells was diluted two by two until the last series for a final concentration of 0.25 mg/L (0.0007 mM). Each concentration is duplicated in the same plate. The plate is incubated for 18 h at 37° C. […] If there is antibacterial activity, the bacterial growth is inhibited, which means that no turbidity or bacterial residue is present.
(§4) The minimum inhibitory concentrations (MIC) are tested on Gram-positive bacterial strains according to the recommendations of the “Clinical Laboratory Standards Institute” (Clinical-Laboratory-Standards-Institute, 6th ed. Approved standard M100-S17. CLSI, Wayne, Pa., 2007). The clinical strains have been isolated in the Hospice de Lyon.
Enterococci: E. faecium (CIP 103510), clinical strains of Enterococci E. faecium: Van A 0151850763 (hereinafter Van A); strain 015 205731401 (hereinafter 1401), […]

Experiment [2] concerns L. monocytogenes (CIP 103575). The experiment is described as follows: MIC, 96-well microplate microdilution (Example 4). Format: cell-based. The following applies: Mueller-Hinton medium, 18 h at 37° C. On the procedure: (§5) The bacteriostatic properties of the derivatives are evaluated by measuring their minimum inhibitory concentration (MIC) on the bacteria tested. Such a measurement is made using the 96-well microplate microdilution method according to the conditions defined below.
(§6) The minimum inhibitory concentrations (MIC) are tested on Gram-positive bacterial strains according to the recommendations of the “Clinical Laboratory Standards Institute” (Clinical-Laboratory-Standards-Institute, 6th ed. Approved standard M100-S17. CLSI, Wayne, Pa., 2007).
(§7) The Gram-positive bacteria studied are as follows: L. monocytogenes (CIP 103575), E. faecalis (ATCC® 29212™) and S. aureus (ATCC® 292213™).
(§8) The cultures studied, freshly isolated (after incubation on a blood agar at 37° C. for 18 h), are taken up in sterile water (10 mL) until a 0.5 McFarland (Mc) suspension i.e. 1 to 2×10^8 CFU (bacteria)/cm^3 is obtained. The bacterial suspension was then diluted to obtain a final concentration of 5×10^5 CFU/cm^3.
(§9) Each well contains an identical quantity of Mueller-Hinton medium (a rich medium for bacterial culture) and bacteria with final 5×10^5 CFU/cm^3.
(§10) The test compounds of interest are solubilized in 2.5% m of ethanol before being diluted to different concentrations two by two.
as §3, with “On” for “The test compounds of interest are solubilized in ethanol or DMSO at 25 mg/mL before being diluted to different concentrations two by two. On”, “4 mM.” for “256 mg (7 mM).”, “0.003 mM.” for “0.25 mg/L (0.0007 mM).”
(§11) Tests have been conducted on Gram-positive bacteria with sorbitan derivatives. […] After sterilization the solutions are diluted in water. The results obtained for antimicrobial tests on the 3 bacterial strains L. monocytogenes (CIP 103575), E. faecalis (ATCC® 29212™) and S. aureus (ATCC® 292213™) are summarized in Table 1.

Experiment [3] concerns E. faecalis (ATCC® 29212™). The experiment is described as follows: MIC, 96-well microplate microdilution (Example 4). As to conditions: Mueller-Hinton medium, 18 h at 37° C. Format: cell-based. As to the method:
as §5, §6, §7, §8, §9, §10
as §3, with “On” for “The test compounds of interest are solubilized in ethanol or DMSO at 25 mg/mL before being diluted to different concentrations two by two. On”, “4 mM.” for “256 mg (7 mM).”, “0.003 mM.” for “0.25 mg/L (0.0007 mM).”
as §11

Experiment [4] concerns S. aureus (ATCC® 292213™). The experiment can be described thus: MIC, 96-well microplate microdilution (Example 4). Format: cell-based. As to conditions: ATCC 292213; Mueller-Hinton medium, 18 h at 37° C. As to the method:
as §5, §6, §7, §8, §9, §10
as §3, with “On” for “The test compounds of interest are solubilized in ethanol or DMSO at 25 mg/mL before being diluted to different concentrations two by two. On”, “4 mM.” for “256 mg (7 mM).”, “0.003 mM.” for “0.25 mg/L (0.0007 mM).”
as §11

For experiment [5], the system named is Staphylococcus Aureus strains. The experiment can be described thus: MIC microdilution on wider panel (Example 8), Staphylococcus strains. It counts as cell-based, S. aureus. As to the method: as §1, §2, §3, §4
Staphylococci S. aureus: ATCC® 29213™, ATCC 25923,
Staphylococci strains Daptomycin-resistant S. aureus (ST 2015-0188), (ST 2014 1288).
The cultures studied, freshly isolated (after incubation on a blood agar at 37° C. for 18 h), are taken up in sterile water (10 mL) until a 0.5 McFarland (Mc) suspension i.e. at 10^8 CFU (bacteria)/cm^3 is obtained. The bacterial suspension was then diluted to obtain a final concentration of 10^6 CFU/cm^3.

As for Dodecyl-1,4-d-sorbitan [Example 2e], in experiment [1] (E. faecium CIP 103510), the “Minimum inhibitory concentration (MIC) CIP 103510” value turned out to be 16 µg/mL. In addition, the “Minimum inhibitory concentration (MIC) Van A” value in experiment [1] (clinical E. faecium Van A 0151850763) came out at 16 µg/mL. The “Minimum inhibitory concentration (MIC) 1401” value in experiment [1] (clinical E. faecium strain 015 205731401) came to 8 µg/mL. Also, the “Minimum inhibitory concentration (MIC) L. monocytogenes” value in experiment [2] amounted to 120 µM. In addition, the “Minimum inhibitory concentration (MIC) E. faecalis” value in experiment [3] amounted to 120 µM. In addition, the “Minimum inhibitory concentration (MIC) S. aureus” value in experiment [4] turned out to be 120 µM. In addition, the “Minimum inhibitory concentration (MIC) ST 2014 1288” value in experiment [5] (Daptomycin-resistant S. aureus ST 2014 1288) came to 64 µg/mL. In experiment [5] (Daptomycin-resistant S. aureus ST 2015-0188), the “Minimum inhibitory concentration (MIC) ST 2015 0188” value was found to be 64 µg/mL. For the same substance, in experiment [5] (Methicillin-resistant S. aureus HT 2002-0417), the “Minimum inhibitory concentration (MIC) HT 2002-0417” value was 32 µg/mL. Further, in experiment [5] (Methicillin-resistant S. aureus HT 2004-0012), the “Minimum inhibitory concentration (MIC) HT 2004-0012” value turned out to be 32 µg/mL. Also, the “Minimum inhibitory concentration (MIC) HT 2006-1004” value in experiment [5] (Methicillin-resistant S. aureus HT 2006-1004) is 32 µg/mL. In addition, the “Minimum inhibitory concentration (MIC) LY 199-0053” value in experiment [5] (Methicillin-resistant S. aureus LY 199-0053) came to 32 µg/mL. Also, the “Minimum inhibitory concentration (MIC) USA 300” value in experiment [5] (Methicillin-resistant S. aureus Lac-Deleo USA 300) came out at 32 µg/mL. In addition, in experiment [5] (Methicillin-resistant S. aureus MU 3), the “Minimum inhibitory concentration (MIC) MU 3” value is 64 µg/mL. The “Minimum inhibitory concentration (MIC) ATCC 25923” value in experiment [5] (S. aureus ATCC 25923) is 32 µg/mL. Further, in experiment [5] (S. aureus ATCC 29213), the “Minimum inhibitory concentration (MIC) ATCC 29213” value was 32 µg/mL.
